Laboratory results published in ChEMBL document CHEMBL5653631, “A Potent and Selective ULK1 Inhibitor Suppresses Autophagy and Sensitizes Cancer Cells to Nutrient Stress” (iScience, 2018).

Columns and labels:
[1] = target: SRSF protein kinase 1 (Homo sapiens) (UniProt Q96SB4); assay: Inhibition of human recombinant SRPK1 at 40 nM in presence of ATP by radiometric assay relative to control
[2] = target: NT-3 growth factor receptor (Homo sapiens) (UniProt Q16288); assay: Inhibition of human recombinant TRKC at 500 nM in presence of ATP by radiometric assay relative to control
[3] = target: Calcium/calmodulin-dependent protein kinase type II subunit gamma (Homo sapiens) (UniProt Q13555); assay: Inhibition of human recombinant CaMK2g at 500 nM related to control ULK1
[4] = target: T1, Ephrin type-B receptor 2 (Homo sapiens) (UniProt P29323); assay: Inhibition of human recombinant EphB2 at 500 nM related to control ULK1
T1 sequence (whole entry): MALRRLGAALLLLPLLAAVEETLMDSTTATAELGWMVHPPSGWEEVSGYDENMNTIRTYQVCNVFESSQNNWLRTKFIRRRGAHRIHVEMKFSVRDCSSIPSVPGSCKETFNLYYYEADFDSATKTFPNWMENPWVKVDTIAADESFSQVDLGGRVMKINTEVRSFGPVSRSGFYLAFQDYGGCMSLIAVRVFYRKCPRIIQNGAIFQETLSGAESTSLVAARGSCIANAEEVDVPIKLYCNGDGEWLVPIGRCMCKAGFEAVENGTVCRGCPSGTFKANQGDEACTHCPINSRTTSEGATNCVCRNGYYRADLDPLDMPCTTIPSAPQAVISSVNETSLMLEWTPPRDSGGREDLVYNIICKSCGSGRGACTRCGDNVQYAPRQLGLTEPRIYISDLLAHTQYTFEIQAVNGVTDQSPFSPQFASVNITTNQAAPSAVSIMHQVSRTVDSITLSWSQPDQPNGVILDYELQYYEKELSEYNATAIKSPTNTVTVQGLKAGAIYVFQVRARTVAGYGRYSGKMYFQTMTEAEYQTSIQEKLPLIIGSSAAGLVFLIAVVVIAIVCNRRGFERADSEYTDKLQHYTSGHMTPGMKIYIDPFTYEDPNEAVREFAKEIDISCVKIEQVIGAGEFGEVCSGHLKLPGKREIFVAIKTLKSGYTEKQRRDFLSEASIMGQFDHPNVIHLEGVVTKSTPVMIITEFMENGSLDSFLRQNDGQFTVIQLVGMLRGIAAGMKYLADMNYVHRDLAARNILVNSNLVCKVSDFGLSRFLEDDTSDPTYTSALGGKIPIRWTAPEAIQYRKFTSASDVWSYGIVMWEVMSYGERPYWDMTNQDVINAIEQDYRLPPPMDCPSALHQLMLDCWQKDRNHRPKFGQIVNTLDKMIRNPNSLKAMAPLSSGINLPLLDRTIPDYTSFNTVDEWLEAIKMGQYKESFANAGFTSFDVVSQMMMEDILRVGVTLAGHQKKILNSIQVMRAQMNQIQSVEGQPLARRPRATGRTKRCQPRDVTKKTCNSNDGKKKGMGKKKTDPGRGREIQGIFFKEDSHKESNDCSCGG

[5] = target: Dual specificity mitogen-activated protein kinase kinase 2 (Homo sapiens) (UniProt P36507); assay: Inhibition of human recombinant MAP2K2 at 500 nM related to control ULK1
[6] = target: SRSF protein kinase 3 (Homo sapiens) (UniProt Q9UPE1); assay: Inhibition of human recombinant MSSK1 at 500 nM related to control ULK1
[7] = target: Protein kinase C alpha type (Homo sapiens) (UniProt P17252); assay: Inhibition of human recombinant PKCa at 500 nM related to control ULK1
[8] = target: T2, Myosin-IIIb (Homo sapiens) (UniProt Q8WXR4); assay: Inhibition of human recombinant MYO3B at 15 nM in presence of ATP by radiometric assay relative to control
T2 sequence (whole entry): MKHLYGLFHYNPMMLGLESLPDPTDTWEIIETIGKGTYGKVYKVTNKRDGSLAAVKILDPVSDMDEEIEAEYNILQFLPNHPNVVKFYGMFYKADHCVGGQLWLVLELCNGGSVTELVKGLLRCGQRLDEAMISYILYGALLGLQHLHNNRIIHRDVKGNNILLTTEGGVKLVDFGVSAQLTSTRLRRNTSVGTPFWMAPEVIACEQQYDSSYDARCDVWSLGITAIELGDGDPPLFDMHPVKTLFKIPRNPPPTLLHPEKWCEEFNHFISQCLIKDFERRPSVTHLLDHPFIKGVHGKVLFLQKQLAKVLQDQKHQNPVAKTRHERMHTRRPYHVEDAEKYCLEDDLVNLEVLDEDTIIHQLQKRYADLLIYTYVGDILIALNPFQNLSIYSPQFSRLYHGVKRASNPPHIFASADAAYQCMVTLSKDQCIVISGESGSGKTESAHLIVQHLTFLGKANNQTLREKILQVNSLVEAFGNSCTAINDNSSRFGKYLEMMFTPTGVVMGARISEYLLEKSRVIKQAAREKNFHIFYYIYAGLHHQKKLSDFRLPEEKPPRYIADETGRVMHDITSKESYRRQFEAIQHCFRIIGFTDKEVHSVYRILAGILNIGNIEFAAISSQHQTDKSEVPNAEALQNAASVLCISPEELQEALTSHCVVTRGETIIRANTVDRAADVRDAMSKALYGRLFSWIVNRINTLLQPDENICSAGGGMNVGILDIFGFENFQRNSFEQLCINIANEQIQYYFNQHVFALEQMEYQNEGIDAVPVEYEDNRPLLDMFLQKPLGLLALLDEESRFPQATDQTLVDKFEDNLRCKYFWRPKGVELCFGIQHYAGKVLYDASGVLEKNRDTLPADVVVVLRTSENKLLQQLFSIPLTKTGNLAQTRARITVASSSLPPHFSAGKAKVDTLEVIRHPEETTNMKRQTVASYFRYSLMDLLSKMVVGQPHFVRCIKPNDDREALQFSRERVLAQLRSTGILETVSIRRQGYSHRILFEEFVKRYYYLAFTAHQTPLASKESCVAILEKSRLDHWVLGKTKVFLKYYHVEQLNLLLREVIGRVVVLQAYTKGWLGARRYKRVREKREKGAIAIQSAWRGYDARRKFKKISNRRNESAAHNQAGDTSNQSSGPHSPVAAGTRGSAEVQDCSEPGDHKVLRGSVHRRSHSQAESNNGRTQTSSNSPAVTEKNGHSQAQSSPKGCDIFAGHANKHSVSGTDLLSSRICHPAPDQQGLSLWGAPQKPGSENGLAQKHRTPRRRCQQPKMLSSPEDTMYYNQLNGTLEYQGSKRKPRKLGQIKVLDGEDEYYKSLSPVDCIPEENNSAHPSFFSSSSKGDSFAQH

[9] = target: Cyclin-dependent kinase 4 (Homo sapiens) (UniProt P11802); assay: Inhibition of human recombinant CDK4 at 15 nM related to control ULK1
[10] = target: Mitogen-activated protein kinase 11 (Homo sapiens) (UniProt Q15759); assay: Inhibition of human recombinant p38beta at 15 nM related to control ULK1
Sequence of Mitogen-activated protein kinase 11 (Homo sapiens) (Q15759 whole entry): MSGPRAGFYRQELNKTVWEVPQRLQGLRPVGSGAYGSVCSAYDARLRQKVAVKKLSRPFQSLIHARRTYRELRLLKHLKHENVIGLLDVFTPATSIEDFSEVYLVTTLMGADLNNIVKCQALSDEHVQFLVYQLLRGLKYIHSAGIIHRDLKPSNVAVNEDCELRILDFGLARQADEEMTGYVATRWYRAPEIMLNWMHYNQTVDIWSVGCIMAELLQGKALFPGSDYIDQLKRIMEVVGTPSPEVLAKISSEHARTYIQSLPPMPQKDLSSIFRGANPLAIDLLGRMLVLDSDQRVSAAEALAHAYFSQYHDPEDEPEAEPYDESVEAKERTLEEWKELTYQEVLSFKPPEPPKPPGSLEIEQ

Sequence of Calcium/calmodulin-dependent protein kinase type II subunit gamma (Homo sapiens) (Q13555 whole entry): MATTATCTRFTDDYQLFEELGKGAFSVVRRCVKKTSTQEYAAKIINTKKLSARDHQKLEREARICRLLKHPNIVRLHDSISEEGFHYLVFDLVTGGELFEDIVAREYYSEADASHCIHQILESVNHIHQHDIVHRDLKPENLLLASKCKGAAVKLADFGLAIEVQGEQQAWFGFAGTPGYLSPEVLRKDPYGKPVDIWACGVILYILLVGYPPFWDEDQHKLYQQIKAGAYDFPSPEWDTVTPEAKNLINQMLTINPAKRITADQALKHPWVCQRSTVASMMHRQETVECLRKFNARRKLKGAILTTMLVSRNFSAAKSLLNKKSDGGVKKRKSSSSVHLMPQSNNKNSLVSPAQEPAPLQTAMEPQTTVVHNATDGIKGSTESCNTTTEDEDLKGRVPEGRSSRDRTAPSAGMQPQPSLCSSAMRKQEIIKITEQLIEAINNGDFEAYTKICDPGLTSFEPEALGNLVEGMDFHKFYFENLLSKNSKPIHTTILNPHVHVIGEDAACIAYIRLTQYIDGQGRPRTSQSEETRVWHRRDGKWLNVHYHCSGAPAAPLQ
Sequence of Dual specificity mitogen-activated protein kinase kinase 2 (Homo sapiens) (P36507 whole entry): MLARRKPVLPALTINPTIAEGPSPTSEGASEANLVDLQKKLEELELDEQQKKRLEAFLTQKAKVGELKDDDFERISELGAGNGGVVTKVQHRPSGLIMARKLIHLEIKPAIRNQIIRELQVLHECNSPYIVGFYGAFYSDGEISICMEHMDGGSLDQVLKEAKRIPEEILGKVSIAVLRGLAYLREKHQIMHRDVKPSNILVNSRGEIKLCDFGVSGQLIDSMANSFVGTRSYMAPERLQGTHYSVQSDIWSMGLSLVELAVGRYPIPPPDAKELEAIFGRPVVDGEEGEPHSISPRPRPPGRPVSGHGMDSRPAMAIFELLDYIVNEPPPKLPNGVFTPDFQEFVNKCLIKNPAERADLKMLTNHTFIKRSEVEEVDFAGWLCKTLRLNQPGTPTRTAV
Sequence of Cyclin-dependent kinase 4 (Homo sapiens) (P11802 whole entry): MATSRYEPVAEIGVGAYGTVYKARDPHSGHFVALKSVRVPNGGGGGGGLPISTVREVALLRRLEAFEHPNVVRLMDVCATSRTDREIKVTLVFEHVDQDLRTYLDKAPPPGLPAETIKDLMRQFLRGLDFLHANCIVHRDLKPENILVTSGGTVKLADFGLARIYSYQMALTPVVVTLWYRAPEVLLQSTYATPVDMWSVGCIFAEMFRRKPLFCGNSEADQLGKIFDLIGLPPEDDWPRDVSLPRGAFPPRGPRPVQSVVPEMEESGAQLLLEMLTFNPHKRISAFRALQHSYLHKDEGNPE
Sequence of NT-3 growth factor receptor (Homo sapiens) (Q16288 32-839 limits assumed): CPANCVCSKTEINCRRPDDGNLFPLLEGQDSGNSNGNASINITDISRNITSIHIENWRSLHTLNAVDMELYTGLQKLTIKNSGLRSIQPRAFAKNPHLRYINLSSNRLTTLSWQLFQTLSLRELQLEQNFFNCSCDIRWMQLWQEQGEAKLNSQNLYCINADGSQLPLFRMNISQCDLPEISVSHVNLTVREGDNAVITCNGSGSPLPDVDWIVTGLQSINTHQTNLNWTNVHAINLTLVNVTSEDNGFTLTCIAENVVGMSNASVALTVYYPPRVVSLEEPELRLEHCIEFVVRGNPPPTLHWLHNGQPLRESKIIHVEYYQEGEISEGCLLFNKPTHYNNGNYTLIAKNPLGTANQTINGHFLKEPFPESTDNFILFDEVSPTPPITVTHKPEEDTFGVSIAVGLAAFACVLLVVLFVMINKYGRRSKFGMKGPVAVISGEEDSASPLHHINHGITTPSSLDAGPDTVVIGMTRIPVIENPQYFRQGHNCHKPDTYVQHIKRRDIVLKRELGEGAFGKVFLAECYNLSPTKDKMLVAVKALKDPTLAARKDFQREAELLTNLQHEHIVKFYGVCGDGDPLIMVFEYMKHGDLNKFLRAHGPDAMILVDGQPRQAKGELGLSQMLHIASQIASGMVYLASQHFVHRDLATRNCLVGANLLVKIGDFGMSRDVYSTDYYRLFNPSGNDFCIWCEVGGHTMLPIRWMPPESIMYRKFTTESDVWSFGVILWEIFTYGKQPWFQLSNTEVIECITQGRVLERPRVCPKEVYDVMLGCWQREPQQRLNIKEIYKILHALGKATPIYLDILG
Sequence of SRSF protein kinase 1 (Homo sapiens) (Q96SB4 whole entry): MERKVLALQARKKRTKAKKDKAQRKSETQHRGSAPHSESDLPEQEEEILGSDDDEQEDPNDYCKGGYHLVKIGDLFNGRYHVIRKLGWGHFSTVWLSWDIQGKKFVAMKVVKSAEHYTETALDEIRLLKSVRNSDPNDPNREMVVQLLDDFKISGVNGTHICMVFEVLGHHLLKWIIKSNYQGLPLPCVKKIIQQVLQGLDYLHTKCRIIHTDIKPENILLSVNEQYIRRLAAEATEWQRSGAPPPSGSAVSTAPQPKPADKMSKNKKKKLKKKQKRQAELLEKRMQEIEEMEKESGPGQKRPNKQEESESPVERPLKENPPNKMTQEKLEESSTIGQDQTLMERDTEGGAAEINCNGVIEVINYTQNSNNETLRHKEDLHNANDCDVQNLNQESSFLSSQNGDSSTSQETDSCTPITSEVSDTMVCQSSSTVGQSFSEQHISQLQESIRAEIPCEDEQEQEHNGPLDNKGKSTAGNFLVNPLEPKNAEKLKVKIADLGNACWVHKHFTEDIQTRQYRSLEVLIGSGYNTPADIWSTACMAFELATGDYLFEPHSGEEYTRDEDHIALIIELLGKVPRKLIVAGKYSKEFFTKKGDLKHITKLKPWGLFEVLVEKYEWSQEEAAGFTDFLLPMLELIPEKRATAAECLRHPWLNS
Sequence of SRSF protein kinase 3 (Homo sapiens) (Q9UPE1 whole entry): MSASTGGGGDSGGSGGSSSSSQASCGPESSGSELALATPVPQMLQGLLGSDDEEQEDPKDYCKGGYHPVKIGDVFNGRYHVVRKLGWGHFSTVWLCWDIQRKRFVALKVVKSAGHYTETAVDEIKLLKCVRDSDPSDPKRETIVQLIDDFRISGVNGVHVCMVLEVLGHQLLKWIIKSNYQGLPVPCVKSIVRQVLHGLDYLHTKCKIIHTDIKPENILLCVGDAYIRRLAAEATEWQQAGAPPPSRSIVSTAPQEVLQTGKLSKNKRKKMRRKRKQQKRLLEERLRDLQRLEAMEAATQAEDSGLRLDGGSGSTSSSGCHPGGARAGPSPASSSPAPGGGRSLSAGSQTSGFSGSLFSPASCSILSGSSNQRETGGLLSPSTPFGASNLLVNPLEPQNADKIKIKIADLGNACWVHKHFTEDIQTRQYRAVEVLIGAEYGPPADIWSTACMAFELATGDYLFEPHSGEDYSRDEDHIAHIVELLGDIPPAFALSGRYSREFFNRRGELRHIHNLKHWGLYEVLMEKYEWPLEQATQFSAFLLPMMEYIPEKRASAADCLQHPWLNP

Q: Which inhibition [1] does the source give for O=C(N[C@@H](C1CC1)C(F)(F)F)c1cc(-c2cnn3cc(-c4ccc(F)cc4)cnc23)cs1 here?
A: The inhibition was 10%.

Q: What does the source list for CNC(=O)c1ccccc1Oc1nc(Nc2cc(OC)c(OC)c(OC)c2)ncc1Br?
A: inhibition [2]: 0%; fold change (FC) [3]: 0.03; fold change (FC) [4]: 0.2; fold change (FC) [5]: 0; fold change (FC) [6]: 0.2; fold change (FC) [7]: 0

Q: How did the inhibition [8] turn out when CC(C)[C@H](NC(=O)c1cc(-c2cnn3cc(-c4ccc(OCCN5CCCCC5)cc4)cnc23)cs1)C(F)(F)F was run?
A: Its inhibition is 6%.

Q: What about the fold change (FC) [9] of the same compound?
A: The fold change (FC) was 0.13.

Q: And the fold change (FC) [10]?
A: Its fold change (FC) is 0.01.
